This is an account of results in PubChem BioAssay (NCI).

Test systems include SF-268 CNS; EKVX NSCLC; HL-60(TB) leukemia; U251 CNS; HCC-2998 colon; KM20L2 colon; CCRF-CEM leukemia; SK-OV-3 ovarian; TK-10 renal; IGROV1 ovarian; SR leukemia; UACC-62 melanoma; COLO 205 colon; MALME-3M melanoma; NCI-H522 lung; SNB-75 CNS; SK-MEL-5 melanoma; OVCAR-5 ovarian; SK-MEL-28 melanoma; MDA-MB-435.
What all share (assay): NCI anticancer screen, dose series, 48 h

The structures appear in SMILES notation.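 Compound exposure: 48 hours, 5 concentrations, 96-well plates. TGI is the concentration that stops growth completely.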

In the case of `COc1cc2cc3c4cc(OC)c(OC)cc4cc[n+]3c(C)c2cc1OC` (tested in a mixture with another compound), the TGI was more than 95 µM with SF-268 CNS; more than 100 µM in the test on EKVX NSCLC; more than 100 µM with HL-60(TB) leukemia; more than 100 µM in the test on U251 CNS; more than 100 µM in the test on HCC-2998 colon; more than 100 µM in the test on KM20L2 colon. Moreover, the TGI with CCRF-CEM leukemia, in the test on SK-OV-3 ovarian, with TK-10 renal, in the test with IGROV1 ovarian, with SR leukemia and in the test on UACC-62 melanoma was more than 100 µM each time. The TGI with COLO 205 colon was more than 87.9 µM; with MALME-3M melanoma it was more than 100 µM; in the test on NCI-H522 lung, more than 100 µM; with SNB-75 CNS, more than 88.3 µM; with SK-MEL-5 melanoma, more than 100 µM; in the test with OVCAR-5 ovarian, more than 100 µM. In addition, the TGI in the test on SK-MEL-28 melanoma and in the test with MDA-MB-435 was more than 100 µM throughout.
Turning to `CCCCCCCCCCCC(=O)OCC(C[As](=O)(O)O)OC(=O)CCCCCCCCCCC` (centres undefined), the TGI is more than 34.1 µM with SF-268 CNS; 21 µM with EKVX NSCLC; more than 25 µM in the test with HL-60(TB) leukemia; 2.93 µM in the test with U251 CNS; 14 µM in the test on HCC-2998 colon; 20 µM in the test on KM20L2 colon. Further, the TGI with CCRF-CEM leukemia was 30.8 µM; with SK-OV-3 ovarian it was 30.1 µM; with TK-10 renal it was 30.6 µM; in the test with IGROV1 ovarian it was 3.5 µM; with SR leukemia, 51.4 µM; in the test on UACC-62 melanoma it was 3.95 µM. In addition, the TGI in the test with COLO 205 colon amounted to 25.4 µM; in the test with MALME-3M melanoma it was 6.49 µM; in the test with NCI-H522 lung it was 4.33 µM; in the test on SNB-75 CNS, 21.1 µM; in the test on SK-MEL-5 melanoma it was 3.64 µM; in the test on OVCAR-5 ovarian it was 34.1 µM. The results for the TGI in the test with SK-MEL-28 melanoma and in the test on MDA-MB-435 were 10.1 µM and 9.91 µM, respectively.
For `CCCCCCCCCCCCCCCC(=O)OCC(C[As](=O)(O)O)OC(=O)CCCCCCCCCCCCCCC` (centres undefined), the TGI in the test with SF-268 CNS, in the test on EKVX NSCLC, in the test on HL-60(TB) leukemia, with U251 CNS, in the test with HCC-2998 colon and in the test on KM20L2 colon was more than 100 µM in each case. For the same compound, the TGI in the test on CCRF-CEM leukemia, with SK-OV-3 ovarian, in the test on TK-10 renal, with IGROV1 ovarian, in the test on SR leukemia and in the test with UACC-62 melanoma was more than 100 µM throughout. In addition, the TGI is more than 100 µM with COLO 205 colon; more than 100 µM in the test on MALME-3M melanoma; more than 100 µM in the test on NCI-H522 lung; more than 96.7 µM with SNB-75 CNS; more than 100 µM in the test with SK-MEL-5 melanoma; more than 100 µM in the test with OVCAR-5 ovarian. Moreover, the TGI in the test with SK-MEL-28 melanoma and in the test on MDA-MB-435 was more than 100 µM in each case.
Take `O=C1c2ccsc2C(=O)c2sc(CO)cc21`: the TGI was 2.31 µM in the test with SF-268 CNS; 2.39 µM with EKVX NSCLC; 3.72 µM in the test with HL-60(TB) leukemia; 0.421 µM with U251 CNS; 5.33 µM in the test with HCC-2998 colon; 0.352 µM in the test with KM20L2 colon. The TGI in the test on CCRF-CEM leukemia was 1.35 µM; in the test on SK-OV-3 ovarian, 2.97 µM; in the test on TK-10 renal, 10.1 µM; with IGROV1 ovarian, 1.36 µM; in the test with SR leukemia, more than 10.8 µM; in the test on UACC-62 melanoma, 0.122 µM. Also, the TGI with COLO 205 colon came to 1.53 µM; in the test with MALME-3M melanoma, 1.21 µM; in the test on NCI-H522 lung it was 0.259 µM; with SNB-75 CNS, 0.104 µM; in the test with SK-MEL-5 melanoma, 0.0163 µM; with OVCAR-5 ovarian, 2.12 µM. Also, the TGI in the test on SK-MEL-28 melanoma was 0.0614 µM; in the test with MDA-MB-435 it was less than 0.0178 µM.
Turning to `O=C(Nc1cc(Cl)c(Cl)cc1Cl)C(=O)C1C(=O)NC(=S)NC1=O`, the TGI with SF-268 CNS, in the test on EKVX NSCLC, with HL-60(TB) leukemia, in the test on U251 CNS, in the test with HCC-2998 colon and in the test with KM20L2 colon was more than 100 µM throughout. In addition, the TGI in the test on CCRF-CEM leukemia, in the test with SK-OV-3 ovarian, with TK-10 renal, in the test with IGROV1 ovarian, with SR leukemia and with UACC-62 melanoma was more than 100 µM in each case. In addition, the TGI with COLO 205 colon, in the test on MALME-3M melanoma, in the test with NCI-H522 lung, in the test with SNB-75 CNS, with SK-MEL-5 melanoma and in the test on OVCAR-5 ovarian was more than 100 µM in each case. This compound registered a TGI in the test on SK-MEL-28 melanoma of more than 100 µM.
